Consider one molecule from publication PMC6855250 (Nature, 2019).

The structures appear in SMILES notation.

The target of the test is SidJ (Legionella pneumophila, UniProt Q5ZTK6). As to the kind of experiment: biochemical.

A word on the Kd: it is the concentration at which binding is half-saturated.

Chain of SidJ (Q5ZTK6 whole entry, looked up): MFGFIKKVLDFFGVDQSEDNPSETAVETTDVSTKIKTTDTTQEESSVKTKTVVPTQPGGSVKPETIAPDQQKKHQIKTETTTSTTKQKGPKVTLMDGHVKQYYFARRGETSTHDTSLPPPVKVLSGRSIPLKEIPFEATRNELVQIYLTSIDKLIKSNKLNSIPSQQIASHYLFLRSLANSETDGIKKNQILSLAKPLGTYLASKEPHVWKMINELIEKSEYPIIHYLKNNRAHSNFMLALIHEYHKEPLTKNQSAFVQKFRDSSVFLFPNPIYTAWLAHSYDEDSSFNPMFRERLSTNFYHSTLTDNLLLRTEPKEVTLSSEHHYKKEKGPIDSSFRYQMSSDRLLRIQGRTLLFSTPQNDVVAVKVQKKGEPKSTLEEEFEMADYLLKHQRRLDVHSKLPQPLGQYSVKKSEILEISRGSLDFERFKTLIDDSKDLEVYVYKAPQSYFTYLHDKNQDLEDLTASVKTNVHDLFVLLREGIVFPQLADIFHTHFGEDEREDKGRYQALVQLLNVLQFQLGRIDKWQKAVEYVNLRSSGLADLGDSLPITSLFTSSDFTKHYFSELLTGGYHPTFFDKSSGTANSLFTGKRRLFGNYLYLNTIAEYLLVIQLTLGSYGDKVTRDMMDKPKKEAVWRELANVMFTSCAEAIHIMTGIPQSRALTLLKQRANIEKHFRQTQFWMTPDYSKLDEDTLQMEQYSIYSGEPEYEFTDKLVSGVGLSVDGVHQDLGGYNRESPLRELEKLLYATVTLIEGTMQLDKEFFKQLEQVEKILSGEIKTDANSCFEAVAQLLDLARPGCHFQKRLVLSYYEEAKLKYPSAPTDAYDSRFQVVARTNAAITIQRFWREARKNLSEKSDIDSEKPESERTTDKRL

Regarding `Nc1ncnc2c1ncn2[C@@H]1O[C@H](COP(=O)(O)OP(=O)(O)OP(=O)(O)O)[C@@H](O)[C@H]1O` [ATP], the Kd amounted to 1.45 µM.
